Laboratory results reported in patent US20230321284A1, “COMPOUND, CONTRAST AGENT, AND METHOD FOR PRODUCING COMPOUND” (ST. MARIANNA UNIVERSITY SCHOOL OF MEDICINE, priority 2020, published 2023).

Columns and labels:
[1] = biological target: T1, asialoglycoprotein receptor (Homo sapiens, UniProt P07306+P07307); test: Comparison of uptake activity by asialoglycoprotein receptor among compounds in HepG2 (Test Example 2); type: cell-based; conditions: compound 1.0 mM/mL, I-ASOR 0.4 μg/mL, 37° C. for 30 minutes, FIG. 3
T1 construct: reacted with HepG2 cells washed with ice-cold MEM (GIBCO) in 6 wells; endogenous in cells; host or cells: HepG2
T1 sequence (P07306 1-291): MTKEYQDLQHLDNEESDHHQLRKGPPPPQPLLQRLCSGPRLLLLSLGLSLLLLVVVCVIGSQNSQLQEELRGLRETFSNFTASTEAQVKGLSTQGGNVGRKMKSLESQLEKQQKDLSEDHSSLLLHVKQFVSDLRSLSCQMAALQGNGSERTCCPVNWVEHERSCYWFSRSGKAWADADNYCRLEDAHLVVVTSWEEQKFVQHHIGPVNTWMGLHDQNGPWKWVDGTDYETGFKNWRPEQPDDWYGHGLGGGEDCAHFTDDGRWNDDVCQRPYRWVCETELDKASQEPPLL
T1 sequence (P07307 1-311): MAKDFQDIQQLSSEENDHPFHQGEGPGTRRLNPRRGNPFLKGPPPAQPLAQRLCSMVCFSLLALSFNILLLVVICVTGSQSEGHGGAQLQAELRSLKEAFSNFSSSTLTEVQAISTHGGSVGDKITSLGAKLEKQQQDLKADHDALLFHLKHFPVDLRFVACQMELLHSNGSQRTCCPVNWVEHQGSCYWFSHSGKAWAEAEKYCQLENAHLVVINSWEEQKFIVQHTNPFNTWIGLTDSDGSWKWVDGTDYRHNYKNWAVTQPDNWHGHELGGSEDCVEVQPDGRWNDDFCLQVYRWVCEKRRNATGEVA
Procedure: Uptake activity by an asialoglycoprotein receptor was compared among MEG-2, MEG-4, RYO-1, and RYO-2 by use of the same method as in Test Example 1.
A PBS solution containing 0.4 μg/mL I-ASOR obtained in the same manner as in Test Example 1 and 1.0 mM/mL MEG-2, MEG-4, RYO-1, or RYO-2 was prepared and reacted with HepG2 washed with ice-cold MEM (GIBCO) in 6 wells at 37° C. for 30 minutes. The cells were thoroughly washed and then lysed using 0.1 N NaOH, and radiation dose “A” taken up into HepG2 was measured.
An experiment was conducted as a positive control in which a PBS solution containing 0.4 μg/mL I-ASOR and 1000 μg/mL nonlabelled ASOR was prepared and reacted with HepG2 washed with ice-cold MEM (GIBCO) in 6 wells at 4° C. for 30 minutes.
Next, the background of nonspecific binding of I-ASOR was measured as follows in order to eliminate the influence of the nonspecific binding of I-ASOR to the cells. Specifically, I-ASOR (0.4 μg/mL) and a 100-fold concentration (40 μg/mL) of nonlabelled ASOR were mixed and reacted with HepG2 in the same manner as above. Then, the obtained cells were washed and lysed, and radiation dose “B” was measured. The radiation dose “B” as the background was commonly used in all of the control sample, the positive control sample, and the sample supplemented with each compound.
Next, “A-B” was calculated as to each sample to calculate I-ASOR specifically taken up into HepG2. The experiment was conducted in triplicate to calculate standard deviation.

[2] = Contrast experiment: CT imaging after tail vein injection (Test Example 3); type: in vivo; conditions: 9-week-old male ICR mouse, MEG-1 dose 52 mg/animal, images before, during, 15 minutes and 1 hour after administration
Procedure: A 9-week-old male ICR mouse purchased from CLEA Japan, Inc. was anesthetized by isoflurane inhalation. While the respiratory condition was monitored with DELPet μCT100 application software (DELBio, Inc.), MEG-1 was gradually administered by injection from the tail vein. The dose of MEG-1 was set to 52 mg/animal.
CT images were taken before administration, during administration, 15 minutes after administration and 1 hour after administration. Image data from the chest to the lower abdomen was reconstituted at a pixel size of […] and converted to dicom data. Further, the images were analyzed with VivoQuant software (inviCRO. LLC).
A similar test was conducted using MEG-2, MEG-4, or RYO-2 instead of MEG-1.

[3] = biological target: T1, asialoglycoprotein receptor; test: Uptake inhibition test of I-ASOR in liver cancer cell line HepG2 (Test Example 1); type: cell-based; conditions: compound 100 μg/mL, I-ASOR 6 μg/mL, 4° C. for 30 minutes, FIG. 1
Procedure: RYO-1, MEG-1, and MEG-2 prepared in Examples were subjected to an uptake inhibition test, in which the uptake is performed by an asialoglycoprotein receptor specifically expressed in hepatocytes, using a liver cancer cell line HepG2 in accordance with J Gastroenterol 1998, 33, 855-859. Specifically, the test is based on the following method.
First, orosomucoid (Sigma-Aldrich Co., LLC) was converted to an asialo compound through reaction with immobilized neuraminidase (Sigma-Aldrich Co., LLC) at 37° C. for 12 hours. This asialo-orosomucoid (ASOR) was labeled with radioactive iodine (125I) by use of the chloramine-T method to prepare I-ASOR.
The obtained I-ASOR was prepared as a 6 μg/mL solution in PBS and reacted with HepG2 cells washed with ice-cold MEM (GIBCO) in 6 wells at 4° C. for 30 minutes. The cells were thoroughly washed and then lysed using 0.1 N NaOH, and radiation dose “A” taken up into the cells was measured (control sample). […]
Next, the background of nonspecific binding of I-ASOR was measured as follows in order to eliminate the influence of the nonspecific binding of I-ASOR to the cells. […] Then, the obtained cells were washed and lysed, and radiation dose “B” was measured. […]
Next, “A-B” was calculated as to each sample to calculate I-ASOR specifically taken up into HepG2. […]

[4] = tested on: Panc-1 cells; test: Uptake inhibition test of I-ASOR in pancreatic cancer cell line Panc-1 having no asialoglycoprotein receptor (Test Example 1); type: cell-based; conditions: compound 100 μg/mL, I-ASOR 6 μg/mL, 4° C. for 30 minutes, FIG. 2
Procedure: A similar experiment was conducted using a pancreatic cancer cell line Panc-1 having no asialoglycoprotein receptor. Specifically, the test is based on the following method.
I-ASOR labeled with radioactive iodine (125I) in the same manner as above was prepared as a 6 μg/mL solution in PBS and reacted with Panc-1 cells washed with ice-cold MEM (GIBCO) in 6 wells at 4° C. for 30 minutes. The cells were thoroughly washed and then lysed using 0.1 N NaOH, and radiation dose “A” taken up into the cells was measured (control sample). Similar measurement was performed by the addition of I-ASOR as well as MEG-1, MEG-2, or RYO-1 at 100 μg/mL to measure radiation dose “A” when each compound was added.
Next, the background of nonspecific binding of I-ASOR was measured as follows in order to eliminate the influence of the nonspecific binding of I-ASOR to the cells. Specifically, I-ASOR (6 μg/mL) and a 100-fold concentration (600 μg/mL) of nonlabelled ASOR were mixed and reacted with Panc-1 in the same manner as above. Then, the obtained cells were washed and lysed, and radiation dose “B” was measured. The radiation dose “B” as the background was commonly used in all of the control sample and the sample supplemented with each compound.
Next, “A-B” was calculated as to each sample to calculate I-ASOR specifically taken up into Panc-1. […]

| Compound | inhibition of the uptake of the ligand (I-ASOR) in HepG2 [1] | inhibitory ability on ligand uptake compared between compounds [1] | CT images: appearance of high-absorption liquid (excretion sites) [2] | inhibition of the uptake of the ligand (I-ASOR) in HepG2 [3] | inhibition of the uptake of the ligand (I-ASOR) in Panc-1 [4] |
| --- | --- | --- | --- | --- | --- |
| O=C(NCCOCCO[C@@H]1OC(CO)[C@H](O)[C@H](O)C1O)c1c(I)c(C(=O)NCCOCCO[C@@H]2OC(CO)[C@H](O)[C@H](O)C2O)c(I)c(C(=O)NCCOCCO[C@@H]2OC(CO)[C@H](O)[C@H](O)C2O)c1I (stereo partly drawn) [MEG-4] | competitively inhibited the uptake of the ligand in HepG2 | higher in MEG-4 than in MEG-2 | a liquid that exhibited high absorption, which was not observed before administration, was confirmed to appear over time in the intestine and in the urinary bladder |  |  |
| O=C(NCCNC(=O)[C@H](O)[C@@H](O)[C@H](O[C@@H]1O[C@H](CO)[C@H](O)[C@H](O)[C@H]1O)[C@H](O)CO)c1c(I)c(C(=O)NCCNC(=O)[C@H](O)[C@@H](O)[C@H](O[C@@H]2O[C@H](CO)[C@H](O)[C@H](O)[C@H]2O)[C@H](O)CO)c(I)c(C(=O)NCCNC(=O)[C@H](O)[C@@H](O)C(O[C@@H]2O[C@H](CO)[C@H](O)[C@H](O)[C@H]2O)[C@H](O)CO)c1I (stereo partly drawn) [RYO-2] | competitively inhibited the uptake of the ligand in HepG2 | higher in RYO-2 than in RYO-1 | a liquid that exhibited high absorption, which was not observed before administration, was confirmed to appear over time in the intestine and in the urinary bladder |  |  |
| CC(=O)Nc1c(I)c(NC(C)=O)c(I)c(C(=O)NCCNC(=O)[C@H](O)[C@@H](O)C(O[C@@H]2OC(CO)[C@H](O)[C@H](O)C2O)[C@@H](O)CO)c1I (stereo partly drawn) [RYO-1] | competitively inhibited the uptake of the ligand in HepG2 |  |  | competitively inhibit the uptake of the ligand | none of RYO-1, MEG-1, and MEG-2 inhibited the uptake of the ligand |
| CC(=O)Nc1c(I)c(NC(C)=O)c(I)c(C(=O)NCCO[C@@H]2OC(CO)[C@H](O)C(O)[C@@H]2O)c1I (stereo partly drawn) [MEG-1] |  |  | a liquid that exhibited high absorption, which was not observed before administration, was confirmed to appear over time in the intestine and in the urinary bladder | competitively inhibit the uptake of the ligand | none of RYO-1, MEG-1, and MEG-2 inhibited the uptake of the ligand |
